Experimental findings from US20210317134A1, “UBIQUITIN-SPECIFIC-PROCESSING PROTEASE 7 (USP7) MODULATORS AND USES THEREOF” (RAPT THERAPEUTICS, INC., priority 2019, published 2021) are described below.

SMILES strings stand for the structures.

The target in this assay is USP7 (Homo sapiens, UniProt Q93009). Nature of the assay: USP7 inhibitory potency (Table 1). The format is biochemical.
Sequence of USP7 (Q93009 whole entry): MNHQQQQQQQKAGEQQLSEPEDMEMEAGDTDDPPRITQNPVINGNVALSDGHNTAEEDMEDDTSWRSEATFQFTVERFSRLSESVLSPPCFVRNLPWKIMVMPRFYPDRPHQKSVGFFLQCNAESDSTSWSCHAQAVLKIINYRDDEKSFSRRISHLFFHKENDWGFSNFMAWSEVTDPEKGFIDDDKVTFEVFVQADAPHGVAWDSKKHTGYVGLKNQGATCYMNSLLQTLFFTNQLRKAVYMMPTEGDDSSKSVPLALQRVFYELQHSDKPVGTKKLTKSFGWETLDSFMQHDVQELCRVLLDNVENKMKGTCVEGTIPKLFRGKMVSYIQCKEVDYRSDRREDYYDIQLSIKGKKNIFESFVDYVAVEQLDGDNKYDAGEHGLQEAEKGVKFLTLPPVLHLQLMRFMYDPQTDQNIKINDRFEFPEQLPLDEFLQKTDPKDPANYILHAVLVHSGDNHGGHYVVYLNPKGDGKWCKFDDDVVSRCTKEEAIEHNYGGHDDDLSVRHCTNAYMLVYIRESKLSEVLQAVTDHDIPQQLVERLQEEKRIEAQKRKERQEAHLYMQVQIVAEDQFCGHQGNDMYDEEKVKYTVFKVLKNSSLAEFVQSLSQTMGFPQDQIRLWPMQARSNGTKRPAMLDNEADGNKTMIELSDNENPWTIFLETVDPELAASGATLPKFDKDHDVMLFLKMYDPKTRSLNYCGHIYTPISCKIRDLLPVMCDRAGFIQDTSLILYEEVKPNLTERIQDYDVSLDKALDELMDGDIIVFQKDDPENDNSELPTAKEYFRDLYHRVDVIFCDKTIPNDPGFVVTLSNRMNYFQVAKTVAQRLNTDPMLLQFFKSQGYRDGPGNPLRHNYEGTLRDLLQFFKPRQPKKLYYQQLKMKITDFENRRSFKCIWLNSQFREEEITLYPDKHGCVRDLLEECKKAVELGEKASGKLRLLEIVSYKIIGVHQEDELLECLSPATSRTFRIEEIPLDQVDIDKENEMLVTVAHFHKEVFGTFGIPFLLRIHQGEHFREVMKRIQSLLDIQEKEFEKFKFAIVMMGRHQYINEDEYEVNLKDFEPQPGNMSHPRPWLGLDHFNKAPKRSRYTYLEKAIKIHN

On to `CS(=O)(=O)NCc1cc2nccc(-c3cc(Cl)cc4c3O[C@@H](C(=O)N3CCNCC3)C4)c2s1` [(R)-N-((7-(5-chloro-2-(piperazine-1-carbonyl)-2,3-dihydrobenzofuran-7-yl)thieno[3,2-b]pyridin-2-yl)methyl)methanesulfonamide], for which the IC50 (as a rule, the concentration needed to halve the response being measured) is less than 1000 nM.

With `CC(=O)N(C)Cc1cc2nccc(-c3cc(Cl)cc4c3O[C@@H](C(=O)N3CCNCC3)C4)c2s1` [(R)-N-((7-(5-chloro-2-(piperazine-1-carbonyl)-2,3-dihydrobenzofuran-7-yl)thieno[3,2-b]pyridin-2-yl)methyl)-N-methylacetamide], the concentration for half-maximal inhibition (IC50) is less than 1000 nM.

Consider `CCC(O)c1cc2ncnc(-c3cc(Cl)cc4c3O[C@@H](c3onc5c3CNCC5)C4)c2o1` (stereo partly drawn) [1-(4-((R)-5-chloro-2-(4,5,6,7-tetrahydroisoxazolo[4,3-c]pyridin-3-yl)-2,3-dihydrobenzofuran-7-yl)furo[3,2-d]pyrimidin-6-yl)propan-1-ol], for which the IC50 lay in the range of 1000 to 10000 nM.

As for `C[C@H]1C[C@H](NC(=O)C2Cc3cc(Cl)cc(-c4ccnc5[nH]ccc45)c3O2)CCN1` (stereo partly drawn) [5-chloro-N-((2S,4R)-2-methylpiperidin-4-yl)-7-(1H-pyrrolo[2,3-b]pyridin-4-yl)-2,3-dihydrobenzofuran-2-carboxamide], the IC50 was 1000 to 10000 nM.

Take `CS(=O)(=O)NCCc1cc2nccc(-c3cc(Cl)cc4c3O[C@@H](C(=O)N3CCNCC3)C4)c2s1` [(R)-N-(2-(7-(5-chloro-2-(piperazine-1-carbonyl)-2,3-dihydrobenzofuran-7-yl)thieno[3,2-b]pyridin-2-yl)ethyl)methanesulfonamide]: the IC50 is less than 1000 nM.

`CCC(O)(CC)C1Cc2nccc(-c3cc(Cl)cc4c3O[C@@H](c3onc5c3CNCC5)C4)c2C1` (stereo partly drawn) [3-(4-((R)-5-chloro-2-(4,5,6,7-tetrahydroisoxazolo[4,3-c]pyridin-3-yl)-2,3-dihydrobenzofuran-7-yl)-6,7-dihydro-5H-cyclopenta[b]pyridin-6-yl)pentan-3-ol]: the IC50 lay within 1000 to 10000 nM.

`O=C(C1Cc2cc(Cl)cc(-c3ccnc4[nH]ccc34)c2O1)N1CCC(O)(c2ccccn2)CC1` (centres unmarked) [(5-chloro-7-(1H-pyrrolo[2,3-b]pyridin-4-yl)-2,3-dihydrobenzofuran-2-yl)(4-hydroxy-4-(pyridin-2-yl)piperidin-1-yl)methanone]: the IC50 is 1000 to 10000 nM.

For `O=C(C1Cc2cc(Cl)cc(-c3ccnc4[nH]ccc34)c2O1)N1CCC(c2cnc[nH]2)CC1` (centres unmarked) [(4-(1H-imidazol-5-yl)piperidin-1-yl)(5-chloro-7-(1H-pyrrolo[2,3-b]pyridin-4-yl)-2,3-dihydrobenzofuran-2-yl)methanone], the IC50 was 1000 to 10000 nM.

As to `CN(C)C1CCN(C(=O)[C@H]2Cc3cc(Cl)cc(-c4ccnc5ccsc45)c3O2)CC1` [(R)-(5-chloro-7-(thieno[3,2-b]pyridin-7-yl)-2,3-dihydrobenzofuran-2-yl)(4-(dimethylamino)piperidin-1-yl)methanone], the IC50 is less than 1000 nM.

`CN1CCc2noc([C@H]3Cc4cc(Cl)cc(-c5ccnc6cc(CO)sc56)c4O3)c2C1` [(R)-(7-(5-chloro-2-(5-methyl-4,5,6,7-tetrahydroisoxazolo[4,3-c]pyridin-3-yl)-2,3-dihydrobenzofuran-7-yl)thieno[3,2-b]pyridin-2-yl)methanol] showed a concentration for half-maximal inhibition (IC50) of less than 1000 nM.

On to `O=C([C@H]1Cc2cc(Cl)cc(-c3ccnc4cc(CN5C(=O)CCC5=O)ccc34)c2O1)N1CCNCC1` [(R)-1-((4-(5-chloro-2-(piperazine-1-carbonyl)-2,3-dihydrobenzofuran-7-yl)quinolin-7-yl)methyl)pyrrolidine-2,5-dione], for which the IC50 is less than 1000 nM.

For the compound `CCC(O)c1cc2nccc(-c3cc(Cl)cc4c3O[C@@H](c3onc5c3CN(CC)CC5)C4)c2s1` (stereo partly drawn) [1-(7-((R)-5-chloro-2-(5-ethyl-4,5,6,7-tetrahydroisoxazolo[4,3-c]pyridin-3-yl)-2,3-dihydrobenzofuran-7-yl)thieno[3,2-b]pyridin-2-yl)propan-1-ol], the IC50 was less than 1000 nM.

In turn, `O=C([C@H]1Cc2cc(Cl)cc(-c3ccnc4cc(CN5C(=O)c6ccccc6C5=O)sc34)c2O1)N1CCNCC1` [(R)-2-((7-(5-chloro-2-(piperazine-1-carbonyl)-2,3-dihydrobenzofuran-7-yl)thieno[3,2-b]pyridin-2-yl)methyl)isoindoline-1,3-dione] came in with an IC50 of less than 1000 nM.

`C[C@H]1CNCCN1C(=O)C1Cc2cc(Cl)cc(-c3ccnc4[nH]ccc34)c2O1` (stereo partly drawn) [(5-chloro-7-(1H-pyrrolo[2,3-b]pyridin-4-yl)-2,3-dihydrobenzofuran-2-yl)((S)-2-methylpiperazin-1-yl)methanone]: the IC50 lay within 1000 to 10000 nM.

`O=C([C@H]1Cc2cc(Cl)cc(-c3ccnc4cc(CN5C(=O)COC5=O)sc34)c2O1)N1CCNCC1` [(R)-3-((7-(5-chloro-2-(piperazine-1-carbonyl)-2,3-dihydrobenzofuran-7-yl)thieno[3,2-b]pyridin-2-yl)methyl)oxazolidine-2,4-dione] gave an IC50 of less than 1000 nM.

`CCCC(O)c1cc2nccc(-c3cc(Cl)cc4c3O[C@@H](c3onc5c3CNCC5)C4)c2s1` (stereo partly drawn) [1-(7-((R)-5-chloro-2-(4,5,6,7-tetrahydroisoxazolo[4,3-c]pyridin-3-yl)-2,3-dihydrobenzofuran-7-yl)thieno[3,2-b]pyridin-2-yl)butan-1-ol] came in with an IC50 of less than 1000 nM.

In the case of `N#Cc1ccc2nccc(-c3cc(Cl)cc4c3O[C@@H](c3onc5c3CNCC5)C4)c2c1` [(R)-4-(5-chloro-2-(4,5,6,7-tetrahydroisoxazolo[4,3-c]pyridin-3-yl)-2,3-dihydrobenzofuran-7-yl)quinoline-6-carbonitrile], the IC50 lay in the range of 1000 to 10000 nM.

`CC(O)c1ccc2c(-c3cc(Cl)cc4c3O[C@@H](C(=O)N3CCNCC3)C4)ccnc2c1` (stereo partly drawn) [((2R)-5-chloro-7-(7-(1-hydroxyethyl)quinolin-4-yl)-2,3-dihydrobenzofuran-2-yl)(piperazin-1-yl)methanone] gave an IC50 of less than 1000 nM.

Turning to `CNCCNC(=O)[C@H]1Cc2cc(Cl)cc(-c3ccnc4cc(CO)sc34)c2O1` [(R)-5-chloro-7-(2-(hydroxymethyl)thieno[3,2-b]pyridin-7-yl)-N-(2-(methylamino)ethyl)-2,3-dihydrobenzofuran-2-carboxamide], the IC50 was less than 1000 nM.

Consider `O=C([C@H]1Cc2cc(Cl)cc(-c3ccnc4cc(CN5C(=O)CNC5=O)sc34)c2O1)N1CCNCC1` [(R)-3-((7-(5-chloro-2-(piperazine-1-carbonyl)-2,3-dihydrobenzofuran-7-yl)thieno[3,2-b]pyridin-2-yl)methyl)imidazolidine-2,4-dione], for which the IC50 was less than 1000 nM.

Turning to `Clc1cc2c(c(-c3ccnc4ccnn34)c1)O[C@@H](c1onc3c1CNCC3)C2` [(R)-3-(5-chloro-7-(pyrazolo[1,5-a]pyrimidin-7-yl)-2,3-dihydrobenzofuran-2-yl)-4,5,6,7-tetrahydroisoxazolo[4,3-c]pyridine], the IC50 is less than 1000 nM.

`O=C([C@H]1Cc2cc(Cl)cc(-c3ccnc4ccsc34)c2O1)N1CCC(N2CCCC2)CC1` [(R)-(5-chloro-7-(thieno[3,2-b]pyridin-7-yl)-2,3-dihydrobenzofuran-2-yl)(4-(pyrrolidin-1-yl)piperidin-1-yl)methanone] showed an IC50 of less than 1000 nM.

Compound `O=C(C1Cc2cc(Cl)cc(-c3ccnc4[nH]ccc34)c2O1)N1CCN[C@@H](CO)C1` (stereo partly drawn) [(5-chloro-7-(1H-pyrrolo[2,3-b]pyridin-4-yl)-2,3-dihydrobenzofuran-2-yl)((R)-3-(hydroxymethyl)piperazin-1-yl)methanone] returned an IC50 of 1000 to 10000 nM.

As for `Cc1ccc(S(=O)(=O)N2Cc3nccc(-c4cc(Cl)cc5c4O[C@@H](c4onc6c4CNCC6)C5)c3C2)cc1` [(R)-3-(5-chloro-7-(6-tosyl-6,7-dihydro-5H-pyrrolo[3,4-b]pyridin-4-yl)-2,3-dihydrobenzofuran-2-yl)-4,5,6,7-tetrahydroisoxazolo[4,3-c]pyridine], the IC50 is 10000 to 30000 nM.

Consider `CCC(O)c1cc2ncnc(-c3cc(Cl)cc4c3O[C@@H](C(=O)N3CCNCC3)C4)c2s1` (stereo partly drawn) [((2R)-5-chloro-7-(6-(1-hydroxypropyl)thieno[3,2-d]pyrimidin-4-yl)-2,3-dihydrobenzofuran-2-yl)(piperazin-1-yl)methanone], for which the IC50 is less than 1000 nM.

`NC(=O)c1ccc2c(-c3cc(Cl)cc4c3O[C@@H](c3onc5c3CNCC5)C4)ccnc2c1` [(R)-4-(5-chloro-2-(4,5,6,7-tetrahydroisoxazolo[4,3-c]pyridin-3-yl)-2,3-dihydrobenzofuran-7-yl)quinoline-7-carboxamide] displayed an IC50 of 1000 to 10000 nM.

As to `CC[C@H](O)c1cc2ncnc(-c3cc(Cl)cc4c3O[C@@H](c3onc5c3CNCC5)C4)c2s1` [(S)-1-(4-((R)-5-chloro-2-(4,5,6,7-tetrahydroisoxazolo[4,3-c]pyridin-3-yl)-2,3-dihydrobenzofuran-7-yl)thieno[3,2-d]pyrimidin-6-yl)propan-1-ol], the concentration for half-maximal inhibition (IC50) was less than 1000 nM.

Compound `O=C([C@H]1Cc2cc(Cl)cc(-c3ccnc4ccoc34)c2O1)N1CCNCC1` [(R)-(5-chloro-7-(furo[3,2-b]pyridin-7-yl)-2,3-dihydrobenzofuran-2-yl)(piperazin-1-yl)methanone] came in with an IC50 of less than 1000 nM.

Regarding `CN1CCC(=O)N(Cc2cc3nccc(-c4cc(Cl)cc5c4O[C@@H](C(=O)N4CCNCC4)C5)c3s2)C1=O` [(R)-3-((7-(5-chloro-2-(piperazine-1-carbonyl)-2,3-dihydrobenzofuran-7-yl)thieno[3,2-b]pyridin-2-yl)methyl)-1-methyldihydropyrimidine-2,4(1H,3H)-dione], the IC50 was less than 1000 nM.

`CC(=O)NCc1ccc2c(-c3cc(Cl)cc4c3O[C@@H](c3onc5c3CNCC5)C4)ccnc2c1` [(R)-N-((4-(5-chloro-2-(4,5,6,7-tetrahydroisoxazolo[4,3-c]pyridin-3-yl)-2,3-dihydrobenzofuran-7-yl)quinolin-7-yl)methyl)acetamide]: the concentration for half-maximal inhibition (IC50) is 1000 to 10000 nM.

Regarding `O=C([C@H]1Cc2cc(Cl)cc(-c3ncnc4ccoc34)c2O1)N1CCNCC1` [(R)-(5-chloro-7-(furo[3,2-d]pyrimidin-4-yl)-2,3-dihydrobenzofuran-2-yl)(piperazin-1-yl)methanone], the IC50 was 10000 to 30000 nM.

Regarding `CC1CC(=O)N(Cc2cc3nccc(-c4cc(Cl)cc5c4O[C@@H](C(=O)N4CCNCC4)C5)c3s2)C1=O` (stereo partly drawn) [1-((7-((R)-5-chloro-2-(piperazine-1-carbonyl)-2,3-dihydrobenzofuran-7-yl)thieno[3,2-b]pyridin-2-yl)methyl)-3-methylpyrrolidine-2,5-dione], the IC50 was less than 1000 nM.
